Reference: paper PMC3589414, “Regulation of ASPP2 Interaction with p53 Core Domain by an Intramolecular Autoinhibitory Mechanism” (PLoS ONE, 2013)
Several values for one entry are separate records, joined by “and”; a condition that tells them apart may be missing. Identical values can stand only once. Entries after “also recorded” stand apart in the source; their conditions may differ. Where a SMILES comes first, the peptide text is derived from it. Where no end group is shown, it is not given here. The star is where a group is joined. 5FAM = O=C1OC2(c3ccc(O)cc3Oc3cc(O)ccc32)c2ccc(C(=O)*)cc21

How the values were obtained:
[1] = target: T1, complex between ASPP2 Ank-SH3 and Fl-ASPP2 722–737 (Homo sapiens, UniProt Q13625); assay: Fluorescence anisotropy competition: competitor added to complex of Fl-ASPP2 722–737 and ASPP2 Ank-SH3; assay type: binding; conditions: 83–87 nM Fl-ASPP2 722–737, 8.3 µM (p53CD) or 4.5 µM (Bcl-2 peptides) ASPP2 Ank-SH3, 20 mM Hepes pH 7.0, IS = 50 mM, 5 mM βME, 10°C
T1 construct: pRSET HLT ASPP2 893–1128 vector; HLT (vector-encoded tag); made in house
T1 sequence (Q13625 893-1128): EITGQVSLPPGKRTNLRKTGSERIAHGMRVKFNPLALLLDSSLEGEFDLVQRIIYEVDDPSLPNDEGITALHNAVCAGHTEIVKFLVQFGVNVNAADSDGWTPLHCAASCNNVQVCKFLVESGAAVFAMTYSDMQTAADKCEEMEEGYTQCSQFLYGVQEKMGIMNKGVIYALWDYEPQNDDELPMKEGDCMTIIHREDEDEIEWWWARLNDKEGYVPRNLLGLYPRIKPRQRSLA
Experimental: (§1) In the competition experiments, the conditions were as follows: 100–200 µl of competitor peptide or protein were added to a 1200 µl mixture of 83 nM Fl-ASPP2 722–737 and 8.3 µM ASPP2 Ank-SH3 at 20 mM Hepes pH 7.0, IS = 50 mM, 5 mM βME; 200 µl of 130 µM of competitor peptide were added to a 1150-µl mixture of 87 nM Fl peptide ASPP2 1089–1097 and 6.5 µM p53CD at 50 mM Hepes pH 7.0, IS = 20 mM, 10 mM βME; 200 µl of 130 µM of Bcl-2 103–120 or Bcl-2 7–24 were added to a 1100 µl mixture of 87 nM Fl-NFκB 303–332 and 2.25 µM ASPP2 Ank-SH3 or to 1150 µl mixture of 87 nM Fl-ASPP2 722–737 and 4.5 µM ASPP2 Ank-SH3 at 20 mM Hepes pH 7.0, IS = 50 mM, 5 mM βME. The K d of the competitor was calculated as described.

[2] = target: T2, complex between ASPP2 Ank-SH3 and Fl-NFκB 303–332 (Homo sapiens, UniProt Q13625); assay: Fluorescence anisotropy competition: competitor added to complex of Fl-NFκB 303–332 and ASPP2 Ank-SH3; assay type: binding; conditions: Bcl-2 peptides: 200 µl of 130 µM added to 87 nM Fl-NFκB 303–332 and 2.25 µM ASPP2 Ank-SH3, 20 mM Hepes pH 7.0, IS = 50 mM; p53CD: IS = 150 mM; 10°C
T2 construct: pRSET HLT ASPP2 893–1128 vector; HLT (vector-encoded tag); made in house
T2 sequence (Q13625 893-1128): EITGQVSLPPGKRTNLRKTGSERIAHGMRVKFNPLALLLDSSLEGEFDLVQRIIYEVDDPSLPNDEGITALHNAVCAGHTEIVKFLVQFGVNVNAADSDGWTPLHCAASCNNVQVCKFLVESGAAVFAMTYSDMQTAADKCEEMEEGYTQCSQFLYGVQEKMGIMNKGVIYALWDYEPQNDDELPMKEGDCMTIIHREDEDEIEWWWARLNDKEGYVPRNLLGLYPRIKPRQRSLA
Experimental: as §1

[3] = test system: complex between Fl-ASPP2 1089–1097 and ASPP2 722–737; assay: Fluorescence anisotropy competition: p53CD added to complex of Fl-ASPP2 1089–1097 and ASPP2 722–737; assay type: binding; conditions: Figure 2A
Experimental: A major p53-interacting site in ASPP2 SH3 is situated in the n-src loop between residues 1089–1097 [14], [27] (Figure 1A, B). […] The ASPP2 Pro peptide (residues 722–737) was titrated into the fluorescein-labeled (Fl) ASPP2 n-src peptide (residues 1089–1097). […] In the opposite experiment p53CD was added to a pre-formed complex between the ASPP2 Pro peptide and the Fl-ASPP2 n-src peptide (Figure 2A).

[4] = target: T3, ASPP2 n-src peptide (residues 1089–1097) (Homo sapiens, UniProt Q13625); assay: Fluorescence anisotropy titration into Fl-ASPP2 n-src peptide; assay type: binding; conditions: 20 mM Hepes pH 7.0, IS 50 mM, 5 mM βME, data not shown
T3 construct: fluorescein-labeled (Fl) ASPP2 n-src peptide (residues 1089–1097); made in house; host or cells: chemical peptide synthesis

[5] = test system: complex between p53CD and Fl-ASPP2 1089–1097; assay: Fluorescence anisotropy competition: competitor added to complex of Fl-ASPP2 1089–1097 and p53CD; assay type: binding; conditions: 200 µl of 130 µM competitor added to 87 nM Fl-ASPP2 1089–1097 and 6.5 µM p53CD, 50 mM Hepes pH 7.0, IS = 20 mM, 10 mM βME, 10°C
Experimental: as §1

[6] = target: T1, complex between ASPP2 Ank-SH3 and Fl-ASPP2 722–737; conditions: previously shown; cited from earlier work
Excerpt: Fl-NFκB 303–332 was previously shown to bind ASPP2 Ank-SH3 and compete with the Pro peptide ASPP2 722–737 [13]. We thus assumed that NFκB 303–332 also binds the SH3 domain of ASPP2, similar to p53CD and the ASPP2 Pro peptide. […] The Bcl-2 BH4 peptide (residues 7–24) binds the RT loop of ASPP2 in different residues than the p53 loop3 [14], [22]. […] However, p53CD displaced Fl-NFκB 303–332 from its complex with ASPP2 Ank-SH3. ...

p53 R249S mutant = conditions: back towards wild-type-like structure; cited from earlier work
Excerpt: (§2) The TP53 gene encoding p53 is frequently mutated in human cancers and most of these reported mutations are in the DNA-binding core domain of the protein (p53CD), [25]. Some of these mutations lower the thermodynamic stability of p53, resulting in its unfolding and inactivation.

p53CD mutant I195T = conditions: to levels similar to wild-type; cited from earlier work
Excerpt: as §2

p53CD = conditions: 37°C, concentration-dependent; cited from earlier work
Excerpt: as §2

HCT116 p53−/− cells = conditions: cited from earlier work
Excerpt: (§3) It is possible that the peptide inhibits the intramolecular interaction in ASPP2 and thus activates the p53-ASPP2 interaction that ...

[7] = test system: R175H and R273H mutant p53; conditions: cited from earlier work
Excerpt: as §3

[8] = test system: colorectal carcinoma HCT116 cells; conditions: cited from earlier work
Excerpt: as §3

[9] = target: Bcl-2 peptide 7-24 (Homo sapiens) (UniProt P10415); assay: fluorescence anisotropy; conditions: cited from earlier work
[10] = target: T4, ASPP2 Ank-SH3 (ASPP2 893–1128) (UniProt Q13625 893-1128); assay: fluorescence polarisation; fluorescence anisotropy; ASPP2 Ank-SH3 titrated into Fl-NFκB 303–332; 10°C; 20 mM Hepes pH 7.0, 5 mM βME; ionic strength 150 mM (told for the competition done on this complex); conditions: both partners purified
T4 construct: ASPP2, four ankyrin repeats and SH3 domain, residues 893-1128
T4 sequence (looked up): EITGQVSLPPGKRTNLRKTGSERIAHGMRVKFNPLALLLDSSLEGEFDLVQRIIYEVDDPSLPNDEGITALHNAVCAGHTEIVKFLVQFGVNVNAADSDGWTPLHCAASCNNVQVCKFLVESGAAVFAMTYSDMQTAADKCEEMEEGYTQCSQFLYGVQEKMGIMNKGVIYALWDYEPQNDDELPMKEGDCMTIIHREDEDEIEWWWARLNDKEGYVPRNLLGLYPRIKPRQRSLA

[11] = target: T4, ASPP2 Ank-SH3 (ASPP2 893–1128); assay: fluorescence polarisation; fluorescence anisotropy; ASPP2 Ank-SH3 titrated into 100 nM fluorescein-labelled peptide; 10°C; 20 mM Hepes pH 7.0, 5 mM βME; ionic strength 50 mM (told for the competitions done on these complexes); 1:1 binding model; conditions: both partners purified
[12] = target: T5, Fl-ASPP2 1089–1097 (fluorescein-labelled ASPP2 n-src loop peptide); assay: fluorescence polarisation; fluorescence anisotropy; p53CD or ASPP2 722–737 titrated into 100 nM Fl-ASPP2 1089–1097 in the cuvette; 10°C; 50 mM Hepes pH 7.0, 10 mM NaCl, 10 mM βME; 1:1 binding model; conditions: both partners purified
T5 construct: ASPP2 n-src loop of the SH3 domain, residues 1089-1097; also called Fl-ASPP2 n-src peptide; Fl-n-src peptide; source: synthetic peptide
T5 peptide: fluorescein-REDEDEIEW

With “p53CD: recombinant p53 DNA-binding core domain, residues 94–312, expressed in E. coli” the “Displacement of Fl-ASPP2 722–737 from its complex with ASPP2 Ank-SH3” value [1] was “displaced”, the “Displacement of Fl-NFκB 303–332 from its complex with ASPP2 Ank-SH3” value [2] was “displaced” and the “Anisotropy change on adding p53CD to pre-formed complex of ASPP2 Pro peptide and Fl-ASPP2 n-src peptide” value [3] was “the final anisotropy level increased”.

For “KRTYETFKSIMKKSPFSGPTDPRPPPRRIA [NFκB 303–332]”, the “Binding of NFκB 303–332 to the n-src loop peptide” value [4] is listed as “did not bind”, the “Displacement of p53CD from its complex with Fl-ASPP2 n-src peptide 1089–1097 by non-labeled peptide” value (shortened to “Displacement of p53CD … by non-labeled peptide”) [5] is listed as “did not compete” and the “Competition of NFκB 303–332 with Pro peptide ASPP2 722–737 for ASPP2 Ank-SH3” value [6] is listed as “competed”.

In the case of RRYRRDFAEMSSQLHLTP [Bcl-2 103–120], the “Displacement of p53CD … by non-labeled peptide” value [5] is reported as “did not compete”, the “Displacement of Fl-ASPP2 722–737 from its complex with ASPP2 Ank-SH3” value [1] is reported as “did not displace; also recorded: did not compete” and the “Displacement of Fl-NFκB 303–332 from its complex with ASPP2 Ank-SH3” value [2] is reported as “did not displace; also recorded: did not compete”.

In the case of “REDEDEIEW [ASPP2 1089–1097, nine-residue peptide derived from ASPP2 n-src loop (residues 1089–1097), also termed CDB3]”, the “Structural effects of mutation in p53 R249S” value (p53 R249S mutant) is given as “rescued the structural effects of mutation”, the “Specific DNA binding activity of p53CD mutant I195T” value (p53CD mutant I195T) is given as “restored the specific DNA binding activity” and the “Unfolding of p53CD” value (p53CD) is given as “slowed down the unfolding”. The “Sensitization to apoptosis induced by γ-irradiation” value (HCT116 p53−/− cells) was “not”, the “Conformation of R175H and R273H mutant p53 in cells” value [7] was “restored the wild-type conformation” and the “Sensitization to apoptosis induced by γ-irradiation” value [8] was “sensitize”.

In the case of “YDNREIVMKYIHYKLSQR [Bcl-2 7–24, Bcl2 BH4 derived peptide, residues 7–24]”, the “Displacement of p53CD … by non-labeled peptide” value [5] is reported as “did not compete”, the “Displacement of Fl-ASPP2 722–737 from its complex with ASPP2 Ank-SH3” value [1] is reported as “did not displace; also recorded: did not compete” and the “Displacement of Fl-NFκB 303–332 from its complex with ASPP2 Ank-SH3” value [2] is reported as “did not displace; also recorded: did not compete”.

In the case of `CC[C@H](C)[C@H](NC(=O)[C@H](CCCNC(=N)N)NC(=O)[C@H](CCCNC(=N)N)NC(=O)[C@@H]1CCCN1C(=O)[C@@H]1CCCN1C(=O)[C@@H]1CCCN1C(=O)[C@H](CCCNC(=N)N)NC(=O)[C@@H]1CCCN1C(=O)[C@H](CC(=O)O)NC(=O)[C@@H](NC(=O)[C@@H]1CCCN1C(=O)CNC(=O)[C@H](CO)NC(=O)[C@H](Cc1ccccc1)NC(=O)[C@@H]1CCCN1C(=O)[C@H](CO)NC(=O)[C@H](CCCCN)NC(=O)[C@H](CCCCN)NC(=O)[C@H](CCSC)NC(=O)[C@@H](NC(=O)[C@H](CO)NC(=O)[C@H](CCCCN)NC(=O)[C@H](Cc1ccccc1)NC(=O)[C@@H](NC(=O)[C@H](CCC(=O)O)NC(=O)[C@H](Cc1ccc(O)cc1)NC(=O)[C@@H](NC(=O)[C@H](CCCNC(=N)N)NC(=O)[C@H](CCCCN)NC(=O)c1ccc2c(c1)C(=O)OC21c2ccc(O)cc2Oc2cc(O)ccc21)[C@@H](C)O)[C@@H](C)O)[C@@H](C)CC)[C@@H](C)O)C(=O)N[C@@H](C)C(N)=O` [Fl-NFκB 303–332] (5FAM-KRTYETFKSIMKKSPFSGPTDPRPPPRRIA-NH2), the “Competition of NFκB 303–332 with Pro peptide ASPP2 722–737 for ASPP2 Ank-SH3” value [6] is given as “compete”.

In the case of “ASPP2 Ank-SH3 Ank-SH3 (from UniProt Q13625)”, the Kd [9] is listed as 4700 nM.

With “NFκB 21–50: unlabeled peptide derived from the ASPP2-binding sites in NFκB (VEIIEQPKQRGMRFRYKCEGRSAGSIPGER)” the “Displacement of p53CD … by non-labeled peptide” value [5] was “did not compete”.

B1: Fl-NFκB 303–332 (fluorescein-labelled NFκB p65 peptide) (peptide)
peptide: fluorescein-KRTYETFKSIMKKSPFSGPTDPRPPPRRIA
notes: also called NFκB peptide; source: synthetic peptide
B1 gave a Kd [10] of 470 ± 20 nM and a Kd [11] of 130 ± 10 nM.

B2: ASPP2 722–737 (ASPP2 Pro peptide, non-labelled) (peptide)
peptide: WRKKLSNAPRPLKKRSS
notes: Trp added at the N terminus of the peptide for UV spectroscopy; A natural stretch with one added N-terminal Trp; source: synthetic peptide
Molecule B2 has a Kd [12] of 500 ± 30 nM.

B3: Fl-ASPP2 722–737 (fluorescein-labelled ASPP2 Pro peptide) (peptide)
peptide: fluorescein-WRKKLSNAPRPLKKRSS
notes: Trp added at the N terminus of the peptide for UV spectroscopy; also called Fl-ASPP2 Pro peptide; source: synthetic peptide
For B3, the Kd [11] was 680 nM and 820 nM.
